In patent US8969386B2, “Modulators of CFTR” (Vertex Pharmaceuticals Incorporated, priority 2007, dated 2015):

Biological target: T1, ΔF508-CFTR (Homo sapiens, UniProt P13569, DEL508-508)
T1 construct: expressed in transfected cells
Test: ΔF508-CFTR correction, membrane potential optical (FRET/VIPR) assay
Format: cell-based
Settings: NIH3T3 mouse fibroblasts stably expressing ΔF508-CFTR; for Emax: read-out: % Efficacy
Excerpt: Assays for Detecting and Measuring ΔF508-CFTR Correction Properties of Compounds
Membrane potential optical methods for assaying ΔF508-CFTR modulation properties of compounds
The optical membrane potential assay utilized voltage-sensitive FRET sensors described by Gonzalez and Tsien (See Gonzalez, J. E. and R. Y. Tsien (1995) “Voltage sensing by fluorescence resonance energy transfer in single cells” Biophys J 69(4): 1272-80, and Gonzalez, J. E. and R. Y. Tsien (1997) “Improved indicators of cell membrane potential that use fluorescence resonance energy transfer” Chem Biol 4(4): 269-77) in combination with instrumentation for measuring fluorescence changes such as the Voltage/Ion Probe Reader (VIPR) (See Gonzalez, J. E., K. Oades, et al. (1999) “Cell-based assays and instrumentation for screening ion-channel targets” Drug Discov Today 4(9): 431-439).
These voltage sensitive assays are based on the change in fluorescence resonant energy transfer (FRET) between the membrane-soluble, voltage-sensitive dye, DiSBAC2(3), and a fluorescent phospholipid, CC2-DMPE, which is attached to the outer leaflet of the plasma membrane and acts as a FRET donor. Changes in membrane potential (Vm) cause the negatively charged DiSBAC2(3) to redistribute across the plasma membrane and the amount of energy transfer from CC2-DMPE changes accordingly. The changes in fluorescence emission were monitored using VIPR™ II, which is an integrated liquid handler and fluorescent detector designed to conduct cell-based screens in 96- or 384-well microtiter plates.
1. Identification of Correction Compounds
To identify small molecules that correct the trafficking defect associated with ΔF508-CFTR; a single-addition HTS assay format was developed. The cells were incubated in serum-free medium for 16 hrs at 37° C. in the presence or absence (negative control) of test compound. As a positive control, cells plated in 384-well plates were incubated for 16 hrs at 27° C. to “temperature-correct” ΔF508-CFTR. The cells were subsequently rinsed 3× with Krebs Ringers solution and loaded with the voltage-sensitive dyes. To activate ΔF508-CFTR, 10 μM forskolin and the CFTR potentiator, genistein (20 μM), were added along with Cl^−-free medium to each well. The addition of Cl^−-free medium promoted Cl^− efflux in response to ΔF508-CFTR activation and the resulting membrane depolarization was optically monitored using the FRET-based voltage-sensor dyes.
NIH3T3 mouse fibroblasts stably expressing ΔF508-CFTR are used for optical measurements of membrane potential. The cells are maintained at 37° C. in 5% CO2 and 90% humidity in Dulbecco's modified Eagle's medium supplemented with 2 mM glutamine, 10% fetal bovine serum, 1×NEAA, β-ME, 1× pen/strep, and 25 mM HEPES in 175 cm^2 culture flasks. For all optical assays, the cells were seeded at 30,000/well in 384-well matrigel-coated plates and cultured for 2 hrs at 37° C. before culturing at 27° C. for 24 hrs for the potentiator assay. For the correction assays, the cells are cultured at 27° C. or 37° C. with and without compounds for 16-24 hours Electrophysiological Assays for assaying ΔF508-CFTR modulation properties of compounds

T1 sequence (P13569 with tags, fused parts or gaps DEL508-508): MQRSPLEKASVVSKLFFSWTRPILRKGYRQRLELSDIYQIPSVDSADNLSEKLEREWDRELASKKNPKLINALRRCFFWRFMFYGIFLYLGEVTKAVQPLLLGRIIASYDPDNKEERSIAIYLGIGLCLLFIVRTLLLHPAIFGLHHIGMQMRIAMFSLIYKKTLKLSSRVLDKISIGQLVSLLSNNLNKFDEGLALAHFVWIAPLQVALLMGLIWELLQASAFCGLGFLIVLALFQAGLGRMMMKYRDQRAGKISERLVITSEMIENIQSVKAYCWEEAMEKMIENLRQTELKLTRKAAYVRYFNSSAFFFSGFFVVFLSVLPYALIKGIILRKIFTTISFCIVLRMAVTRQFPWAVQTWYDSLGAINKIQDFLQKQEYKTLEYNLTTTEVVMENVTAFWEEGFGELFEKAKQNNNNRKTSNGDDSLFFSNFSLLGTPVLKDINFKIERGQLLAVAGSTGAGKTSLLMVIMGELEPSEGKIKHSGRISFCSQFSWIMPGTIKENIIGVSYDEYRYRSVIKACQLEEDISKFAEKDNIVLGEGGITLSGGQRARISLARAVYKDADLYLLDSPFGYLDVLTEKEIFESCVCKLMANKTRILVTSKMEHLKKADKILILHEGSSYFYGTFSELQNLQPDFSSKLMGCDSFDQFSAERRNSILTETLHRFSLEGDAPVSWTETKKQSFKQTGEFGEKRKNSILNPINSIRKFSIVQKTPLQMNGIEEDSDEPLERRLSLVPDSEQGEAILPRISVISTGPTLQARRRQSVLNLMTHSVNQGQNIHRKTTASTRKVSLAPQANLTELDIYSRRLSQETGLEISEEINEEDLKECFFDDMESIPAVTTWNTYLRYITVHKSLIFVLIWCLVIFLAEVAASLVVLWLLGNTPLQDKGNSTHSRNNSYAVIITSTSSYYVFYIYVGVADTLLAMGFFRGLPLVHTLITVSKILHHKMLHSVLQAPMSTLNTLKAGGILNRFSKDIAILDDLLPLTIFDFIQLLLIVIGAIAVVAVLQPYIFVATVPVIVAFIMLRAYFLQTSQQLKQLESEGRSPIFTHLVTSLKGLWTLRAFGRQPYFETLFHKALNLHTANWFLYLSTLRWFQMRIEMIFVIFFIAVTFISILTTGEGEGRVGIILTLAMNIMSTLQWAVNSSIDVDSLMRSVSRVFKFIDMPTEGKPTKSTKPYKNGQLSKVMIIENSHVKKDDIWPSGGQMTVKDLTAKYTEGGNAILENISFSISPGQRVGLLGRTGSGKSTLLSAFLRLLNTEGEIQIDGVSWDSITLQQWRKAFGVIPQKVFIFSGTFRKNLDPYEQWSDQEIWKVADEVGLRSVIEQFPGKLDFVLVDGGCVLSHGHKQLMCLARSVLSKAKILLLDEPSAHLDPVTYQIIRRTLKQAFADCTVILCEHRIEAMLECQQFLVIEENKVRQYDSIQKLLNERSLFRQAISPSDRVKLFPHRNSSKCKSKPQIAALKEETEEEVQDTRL

| EC50 [nM] | Emax [%] | SMILES |
| --- | --- | --- |
| < 2000 | 50 to 100 | Cc1ccc(NC(=O)C2(c3ccc4c(c3)OC(F)(F)O4)CC2)nc1-c1ccc(=O)n(CC#N)c1 [Compound 97] |
| < 2000 | 50 to 100 | Cc1cc(NC(=O)C2(c3ccc4c(c3)OCC4)CC2)nc(-c2ccc(=O)[nH]c2)c1 [Compound 98] |
| < 2000 | > 100 | Cc1ccc(NC(=O)C2(c3ccc4c(c3)OCC4)CC2)nc1-c1ccc(=O)[nH]c1 [Compound 99] |
| < 2000 | > 100 | COc1ncccc1-c1nc(NC(=O)C2(c3ccc4c(c3)CCO4)CC2)cc(C)c1C [Compound 100] |
| < 2000 | > 100 | COc1ccc(-c2nc(NC(=O)C3(c4ccc5c(c4)CCO5)CC3)cc(C)c2C)cn1 [Compound 101] |
| < 2000 | 50 to 100 | COc1cc(-c2nc(NC(=O)C3(c4ccc5c(c4)CCO5)CC3)cc(C)c2C)ccn1 [Compound 102] |
| < 2000 | > 100 | COc1ccc(-c2nc(NC(=O)C3(c4ccc5c(c4)OC(F)(F)O5)CC3)cc(C)c2C)c(C)n1 [Compound 103] |
| < 2000 | 50 to 100 | COc1ncc(-c2nc(NC(=O)C3(c4ccc5c(c4)OC(F)(F)O5)CC3)cc(C)c2C)cc1C [Compound 104] |
| < 2000 | 50 to 100 | COc1cc(-c2nc(NC(=O)C3(c4ccc5c(c4)OC(F)(F)O5)CC3)ccc2C)cc(C)n1 [Compound 105] |
| < 2000 | > 100 | Cc1cc(-c2nc(NC(=O)C3(c4ccc5c(c4)OC(F)(F)O5)CC3)ccc2C)cc(=O)[nH]1 [Compound 106] |
| < 2000 | > 100 | Cc1cc(NC(=O)C2(c3ccc4c(c3)OC(F)(F)O4)CC2)nc(-c2c[nH]c(=O)c(C)c2)c1 [Compound 107] |
| < 2000 | > 100 | Cc1cc(NC(=O)C2(c3ccc4c(c3)OC(F)(F)O4)CC2)nc(-c2ccc(=O)[nH]c2C)c1C [Compound 108] |
| < 2000 | 50 to 100 | Cc1cc(NC(=O)C2(c3ccc4c(c3)CCO4)CC2)nc(-c2cc[nH]c(=O)c2)c1C [Compound 109] |
| < 2000 | 50 to 100 | COC(=O)Cn1cc(-c2nc(NC(=O)C3(c4ccc5c(c4)OC(F)(F)O5)CC3)ccc2C)cc(C#N)c1=O [Compound 110] |
| < 2000 | > 100 | Cc1cc(NC(=O)C2(c3ccc4c(c3)OC(F)(F)O4)CC2)nc(-c2c[nH]c(=O)c(C)c2)c1C [Compound 111] |
| < 2000 | 50 to 100 | Cc1cc(NC(=O)C2(c3ccc4c(c3)CCO4)CC2)nc(-c2ccc(=O)[nH]c2)c1C [Compound 112] |
| < 2000 | > 100 | Cc1cc(NC(=O)C2(c3ccc4c(c3)OC(F)(F)O4)CC2)nc(-c2c[nH]c(=O)cc2C)c1 [Compound 113] |
| < 2000 | 50 to 100 | Cc1cc(NC(=O)C2(c3ccc4c(c3)CCO4)CC2)nc(-c2ccc[nH]c2=O)c1C [Compound 114] |
| < 2000 | 50 to 100 | Cc1ccc(NC(=O)C2(c3ccc4c(c3)CCC4)CC2)nc1-c1ccc(=O)[nH]c1 [Compound 115] |
| < 2000 | > 100 | Cc1cc(-c2nc(NC(=O)C3(c4ccc5c(c4)OC(F)(F)O5)CC3)ccc2C)c(=O)n(CCO)c1 [Compound 116] |
| < 2000 | > 100 | Cc1cc(NC(=O)C2(c3ccc4c(c3)OC(F)(F)O4)CC2)nc(-c2ccc(=O)[nH]c2C)c1 [Compound 117] |
